The values that follow are results of earlier work, collected in patent publication US20050049209A1, “Pharmaceutical compositions for delivering macrolides” (priority 2003, published 2005).

The conditions of this data set: can be solubilized at pH<5 as salt.

For `CC[C@H]1OC(=O)[C@H](C)[C@@H](OC2CC(C)(OC)C(O)C(C)O2)[C@H](C)[C@@H](OC2OC(C)CC(N(C)C)C2O)[C@](C)(OC)C[C@@H](C)C(=O)[C@H](C)[C@@H](O)[C@]1(C)O` (stereo partly shown) [Clarithromycin freebase, 6-O-methyl-erythromycin], the solubility in water result is recorded as “substantially insoluble”.
